Converted amounts (≈) assume the structure as drawn.
Tests used:
Staphylococcus aureus [1] = experiment: Anti-infective activity against methicillin resistance Staphylococcus aureus assessed as reduction in bacterial growth by microdilution method; format: functional
Pseudomonas aeruginosa [2] = experiment: Anti-infective activity against Pseudomonas aeruginosa ATCC 27853 assessed as reduction in bacterial growth by microdilution method; format: functional
Staphylococcus aureus [3] = experiment: Anti-infective activity against Staphylococcus aureus ATCC 6538 assessed as reduction in bacterial growth by microdilution method; format: functional
Listeria monocytogenes = experiment: Anti-infective activity against Listeria monocytogenes NCTC 7973 assessed as reduction in bacterial growth by microdilution method; format: functional
Pseudomonas aeruginosa [4] = experiment: Anti-infective activity against Pseudomonas aeruginosa PAO1 assessed as reduction in bacterial growth by microdilution method; format: functional
Escherichia coli [5] = experiment: Anti-infective activity against resistant Escherichia coli assessed as reduction in bacterial growth by microdilution method; format: functional
Escherichia coli [6] = experiment: Anti-infective activity against Escherichia coli ATCC 35210 assessed as reduction in bacterial growth by microdilution method; format: functional
Salmonella typhimurium = experiment: Anti-infective activity against Salmonella typhimurium ATCC 13311 assessed as reduction in bacterial growth by microdilution method; format: functional, Salmonella enterica subsp. enterica serovar Typhimurium; details: Salmonella enterica

SMILES	MBC (Staphylococcus aureus [1]) [µg/mL]	MIC (Staphylococcus aureus [1]) [µg/mL]	MBC (Pseudomonas aeruginosa [2]) [µg/mL]	MIC (Pseudomonas aeruginosa [2]) [µg/mL]	MBC (Staphylococcus aureus [3]) [µg/mL]	MIC (Staphylococcus aureus [3]) [µg/mL]	MBC (Listeria monocytogenes) [µg/mL]	MIC (Listeria monocytogenes) [µg/mL]	MBC (Pseudomonas aeruginosa [4]) [µg/mL]	MIC (Pseudomonas aeruginosa [4]) [µg/mL]	MBC (Escherichia coli [5]) [µg/mL]	MIC (Escherichia coli [5]) [µg/mL]	MBC (Escherichia coli [6]) [µg/mL]	MIC (Escherichia coli [6]) [µg/mL]	MBC (Salmonella typhimurium) [µg/mL]	MIC (Salmonella typhimurium) [µg/mL]
COc1ccc(C2SCC(=O)N2c2nc3ccc(OC(F)(F)F)cc3s2)cc1 (racemic)	1000 (≈ 2340 µM)	500 (≈ 1170 µM)	500 (≈ 1170 µM)	250 (≈ 586 µM)	500 (≈ 1170 µM)	250 (≈ 586 µM)	500 (≈ 1170 µM)	250 (≈ 586 µM)	250 (≈ 586 µM)	120 (≈ 281 µM)	500 (≈ 1170 µM)	250 (≈ 586 µM)	500 (≈ 1170 µM)	250 (≈ 586 µM)	500 (≈ 1170 µM)	250 (≈ 586 µM)
O=C1CSC(c2ccc(Cl)cc2)N1c1nc2ccc(OC(F)(F)F)cc2s1 (racemic)	750 (≈ 1740 µM)	250 (≈ 580 µM)	500 (≈ 1160 µM)	250 (≈ 580 µM)	500 (≈ 1160 µM)	250 (≈ 580 µM)	500 (≈ 1160 µM)	250 (≈ 580 µM)	250 (≈ 580 µM)	200 (≈ 464 µM)	250 (≈ 580 µM)	120 (≈ 279 µM)	250 (≈ 580 µM)	120 (≈ 279 µM)	250 (≈ 580 µM)	120 (≈ 279 µM)
O=C1CSC(c2c(F)cccc2Cl)N1c1nc2ccc(OC(F)(F)F)cc2s1 (racemic)	1000 (≈ 2230 µM)	500 (≈ 1110 µM)	1000 (≈ 2230 µM)	500 (≈ 1110 µM)	500 (≈ 1110 µM)	250 (≈ 557 µM)	500 (≈ 1110 µM)	250 (≈ 557 µM)	250 (≈ 557 µM)	120 (≈ 267 µM)	500 (≈ 1110 µM)	250 (≈ 557 µM)	500 (≈ 1110 µM)	250 (≈ 557 µM)	500 (≈ 1110 µM)	250 (≈ 557 µM)
O=C1CSC(c2cccc(Cl)c2Cl)N1c1nc2ccc(OC(F)(F)F)cc2s1 (racemic)	1000 (≈ 2150 µM)	500 (≈ 1070 µM)	500 (≈ 1070 µM)	250 (≈ 537 µM)	250 (≈ 537 µM)	100 (≈ 215 µM)	250 (≈ 537 µM)	100 (≈ 215 µM)	120 (≈ 258 µM)	120 (≈ 258 µM)	250 (≈ 537 µM)	120 (≈ 258 µM)	250 (≈ 537 µM)	150 (≈ 322 µM)	250 (≈ 537 µM)	150 (≈ 322 µM)
O=C1CSC(c2ccc([N+](=O)[O-])cc2)N1c1nc2ccc(OC(F)(F)F)cc2s1 (racemic)	1000 (≈ 2270 µM)	500 (≈ 1130 µM)	500 (≈ 1130 µM)	250 (≈ 566 µM)	500 (≈ 1130 µM)	250 (≈ 566 µM)	500 (≈ 1130 µM)	250 (≈ 566 µM)	250 (≈ 566 µM)	120 (≈ 272 µM)	500 (≈ 1130 µM)	250 (≈ 566 µM)	250 (≈ 566 µM)	120 (≈ 272 µM)	250 (≈ 566 µM)	120 (≈ 272 µM)
O=C1CSC(c2ccc(F)cc2)N1c1nc2ccc(OC(F)(F)F)cc2s1 (racemic)	500 (≈ 1210 µM)	250 (≈ 603 µM)	500 (≈ 1210 µM)	250 (≈ 603 µM)	500 (≈ 1210 µM)	250 (≈ 603 µM)	500 (≈ 1210 µM)	250 (≈ 603 µM)	500 (≈ 1210 µM)	250 (≈ 603 µM)	500 (≈ 1210 µM)	250 (≈ 603 µM)	250 (≈ 603 µM)	150 (≈ 362 µM)	250 (≈ 603 µM)	150 (≈ 362 µM)
O=C1CSC(c2ccc(O)cc2)N1c1nc2ccc(OC(F)(F)F)cc2s1 (racemic)	500 (≈ 1210 µM)	250 (≈ 606 µM)	250 (≈ 606 µM)	120 (≈ 291 µM)	750 (≈ 1820 µM)	500 (≈ 1210 µM)	750 (≈ 1820 µM)	500 (≈ 1210 µM)	500 (≈ 1210 µM)	300 (≈ 727 µM)	500 (≈ 1210 µM)	250 (≈ 606 µM)	250 (≈ 606 µM)	150 (≈ 364 µM)	250 (≈ 606 µM)	150 (≈ 364 µM)
CC1(C)S[C@@H]2[C@H](NC(=O)[C@H](N)c3ccccc3)C(=O)N2[C@H]1C(=O)O [AMPICILLIN]	–	–	150 (≈ 429 µM)	100 (≈ 286 µM)	300 (≈ 859 µM)	150 (≈ 429 µM)	300 (≈ 859 µM)	150 (≈ 429 µM)	–	200 (≈ 572 µM)	–	200 (≈ 572 µM)	200 (≈ 572 µM)	150 (≈ 429 µM)	200 (≈ 572 µM)	150 (≈ 429 µM)
O=C1CSC(c2ccc(Cl)cc2Cl)N1c1nc2ccc(OC(F)(F)F)cc2s1 (racemic)	1000 (≈ 2150 µM)	500 (≈ 1070 µM)	500 (≈ 1070 µM)	250 (≈ 537 µM)	500 (≈ 1070 µM)	150 (≈ 322 µM)	500 (≈ 1070 µM)	150 (≈ 322 µM)	1000 (≈ 2150 µM)	250 (≈ 537 µM)	500 (≈ 1070 µM)	250 (≈ 537 µM)	250 (≈ 537 µM)	120 (≈ 258 µM)	250 (≈ 537 µM)	120 (≈ 258 µM)
O=C1CSC(c2c(F)cccc2F)N1c1nc2ccc(OC(F)(F)F)cc2s1 (racemic)	1000 (≈ 2310 µM)	250 (≈ 578 µM)	500 (≈ 1160 µM)	250 (≈ 578 µM)	> 1000	> 1000	> 1000	> 1000	500 (≈ 1160 µM)	300 (≈ 694 µM)	500 (≈ 1160 µM)	250 (≈ 578 µM)	250 (≈ 578 µM)	120 (≈ 278 µM)	250 (≈ 578 µM)	120 (≈ 278 µM)
CN[C@@H]1[C@H](O[C@H]2[C@H](O[C@H]3[C@H](O)[C@@H](O)[C@H](N=C(N)N)[C@@H](O)[C@@H]3N=C(N)N)O[C@@H](C)[C@]2(O)C=O)O[C@@H](CO)[C@H](O)[C@H]1O [STREPTOMYCIN]	–	100 (≈ 172 µM)	200 (≈ 344 µM)	100 (≈ 172 µM)	300 (≈ 516 µM)	150 (≈ 258 µM)	300 (≈ 516 µM)	150 (≈ 258 µM)	100 (≈ 172 µM)	50 (≈ 86 µM)	200 (≈ 344 µM)	100 (≈ 172 µM)	200 (≈ 344 µM)	100 (≈ 172 µM)	200 (≈ 344 µM)	100 (≈ 172 µM)
O=C1CSC(c2c(Cl)cccc2Cl)N1c1nc2ccc(OC(F)(F)F)cc2s1 (racemic)	500 (≈ 1070 µM)	250 (≈ 537 µM)	500 (≈ 1070 µM)	250 (≈ 537 µM)	500 (≈ 1070 µM)	250 (≈ 537 µM)	500 (≈ 1070 µM)	250 (≈ 537 µM)	250 (≈ 537 µM)	120 (≈ 258 µM)	500 (≈ 1070 µM)	250 (≈ 537 µM)	250 (≈ 537 µM)	120 (≈ 258 µM)	250 (≈ 537 µM)	120 (≈ 258 µM)

Reference: ChEMBL document CHEMBL4680298, “2-Aryl-3-(6-trifluoromethoxy)benzo[d]thiazole-based thiazolidinone hybrids as potential anti-infective agents: Synthesis, biological evaluation and molecular docking studies” (2021)
